The values that follow come from patent US20250059185A1 (Hoffmann-La Roche Inc., priority 2021, published 2025).

In the assay the target is MAGL (Homo sapiens (Human), UniProt Q99685). The experiment in a line: 2-AG assay (MAGL inhibitory activity, hydrolysis of 2-arachidonoylglycerol followed by mass spectrometry). The assay is classed as biochemical. Particulars: 50 pM MAGL protein, 15 min pre-incubation, 30 min incubation at RT. An excerpt: Compounds of formula (II) were profiled for MAGL inhibitory activity by determining the enzymatic activity by following the hydrolysis of the natural substrate 2-arachidonoylglycerol (2-AG) resulting in arachidonic acid, which can be followed by mass spectrometry. This assay is hereinafter abbreviated “2-AG assay”.
MAGL, sequence (Q99685 whole entry, species assumed): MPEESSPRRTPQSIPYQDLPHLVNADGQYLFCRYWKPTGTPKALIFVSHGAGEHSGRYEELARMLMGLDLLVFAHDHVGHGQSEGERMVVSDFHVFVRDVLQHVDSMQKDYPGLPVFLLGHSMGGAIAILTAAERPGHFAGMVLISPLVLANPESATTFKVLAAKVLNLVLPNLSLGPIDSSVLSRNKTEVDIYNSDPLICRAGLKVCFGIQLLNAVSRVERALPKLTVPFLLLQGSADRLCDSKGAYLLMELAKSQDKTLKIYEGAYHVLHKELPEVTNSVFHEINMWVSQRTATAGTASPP
Compounds of formula (II) were profiled for MAGL inhibitory activity by determining the enzymatic activity by following the hydrolysis of the natural substrate 2-arachidonoylglycerol (2-AG) resulting in arachidonic acid, which can be followed by mass spectrometry. This assay is hereinafter abbreviated “2-AG assay”. The 2-AG assay was carried out in 384 well polypropylene assay plates. Compound dilutions were made in 100% DMSO in a polypropylene plate in 3-fold dilution steps to give a final concentration range in the assay from 12.5 μM to 0.8 pM. Compound dilutions were added to MAGL protein in assay buffer (50 mM TRIS, 1 mM EDTA, 0.01% (v/v) Tween-20, 2.5% (v/v) DMSO). After shaking, the plate was incubated for 15 min at RT. To start the reaction, 2-arachidonoylglycerol in assay buffer was added. The final concentrations in the assay was 50 pM for MAGL protein and […] 2-arachidonoylglyerol. After shaking and 30 min incubation at RT, the reaction was quenched by the addition of two assay volumes of acetonitrile containing 4 μM of d8-arachidonic acid. The amount of arachidonic acid formed was traced by an online SPE system (Agilent Rapidfire) coupled to a triple quadrupole mass spectrometer. A C18 SPE cartridge (Agilent G9205A) was used in an acetonitrile/water liquid setup. The mass spectrometer was operated in negative electrospray mode following the mass transitions 303.1→259.1 for arachidonic acid and 311.1→267.0 for d8-arachidonic acid. The activity of the compounds was calculated based on the ratio of intensities [arachidonic acid/d8-arachidonic acid].
`COc1cccc(C(=O)N2CCc3c(nn(C)c3-c3cncc(S(C)(=O)=O)c3)[C@@H]2C)c1Cl` [Example 10, (2-Chloro-3-methoxy-phenyl)-[(7S)-2,7-dimethyl-3-(5-methylsulfonyl-3-pyridyl)-5,7-dihydro-4H-pyrazolo[3,4-c]pyridin-6-yl]methanone] returned an IC50 of 4870 nM. The compound `COc1cccc(C(=O)N2CCc3c(nn(C)c3CNC3(C(F)(F)F)CC3)[C@@H]2C)c1Cl` [Example 11, (2-Chloro-3-methoxy-phenyl)-[(7S)-2,7-dimethyl-3-[[[1-(trifluoromethyl)cyclopropyl]amino]methyl]-5,7-dihydro-4H-pyrazolo[3,4-c]pyridin-6-yl]methanone] came in with an IC50 of 464 nM.

`COc1cccc(C(=O)N2CCc3c(nn(C)c3-c3nnc(C(F)(F)F)o3)[C@@H]2C)c1Cl` [Example 12, (2-Chloro-3-methoxy-phenyl)-[(7S)-2,7-dimethyl-3-[5-(trifluoromethyl)-1,3,4-oxadiazol-2-yl]-5,7-dihydro-4H-pyrazolo[3,4-c]pyridin-6-yl]methanone] had an IC50 of 390 nM. Regarding `COc1cccc(C(=O)N2CCc3c(nn(C)c3-c3cccc(O)n3)[C@@H]2C)c1Cl` [Example 13, (2-Chloro-3-methoxy-phenyl)-[(7S)-3-(6-hydroxy-2-pyridyl)-2,7-dimethyl-5,7-dihydro-4H-pyrazolo[3,4-c]pyridin-6-yl]methanone], the IC50 was 622 nM. Under `COc1cccc(C(=O)N2CCc3c(nn(C)c3-c3cc(Cl)cc(CC(N)=O)c3)[C@@H]2C)c1Cl` [Example 14, 2-[3-Chloro-5-[(7S)-6-(2-chloro-3-methoxy-benzoyl)-2,7-dimethyl-5,7-dihydro-4H-pyrazolo[3,4-c]pyridin-3-yl]phenyl]acetamide] stands 41 nM. Turning to `COc1cccc(C(=O)N2CCc3c(nn(C)c3-c3cc(Cl)cc(C4(C(N)=O)CC4)c3)[C@@H]2C)c1Cl` [Example 16, 1-[3-Chloro-5-[(7S)-6-(2-chloro-3-methoxy-benzoyl)-2,7-dimethyl-5,7-dihydro-4H-pyrazolo[3,4-c]pyridin-3-yl]phenyl]cyclopropanecarboxamide], the IC50 is 101 nM. On to `COc1cccc(C(=O)N2CCc3c(nn(C)c3-c3cc(F)cc(CC(N)=O)c3)[C@@H]2C)c1Cl` [Example 17, 2-[3-[(7S)-6-(2-Chloro-3-methoxy-benzoyl)-2,7-dimethyl-5,7-dihydro-4H-pyrazolo[3,4-c]pyridin-3-yl]-5-fluoro-phenyl]acetamide], for which the IC50 worked out at 188 nM. This IC50 lies about 1.9-fold higher than the previous one. In the case of `COc1cccc(C(=O)N2CCc3c(nn(C)c3-c3cncc(CC(N)=O)c3)[C@@H]2C)c1Cl` [Example 18, 2-[5-[(7S)-6-(2-Chloro-3-methoxy-benzoyl)-2,7-dimethyl-5,7-dihydro-4H-pyrazolo[3,4-c]pyridin-3-yl]-3-pyridyl]acetamide], 3080 nM corresponded to half-maximal inhibition (IC50). The compound `CC1c2nn(C)c(-c3cc(F)cc(F)c3)c2CCN1C(=O)c1cc(F)cc(N2CC3(C2)CS(=O)(=O)C3)c1Cl` (stereo not drawn) [Example 19, [2-Chloro-3-(2,2-dioxo-2λ^6-thia-6-azaspiro[3.3]heptan-6-yl)-5-fluoro-phenyl]-[3-(3,5-difluorophenyl)-2,7-dimethyl-5,7-dihydro-4H-pyrazolo[3,4-c]pyridine-6-yl]methanone] had an IC50 of 41 nM. Compared with the last compound, the IC50 is about 75-fold lower. The compound `C[C@H]1c2nn(C)c(-c3cc(F)cc(F)c3)c2CCN1C(=O)c1cc(F)cc(N2CC3(C2)CS(=O)(=O)C3)c1Cl` [Example 20, [2-Chloro-3-(2,2-dioxo-2λ^6-thia-6-azaspiro[3.3]heptan-6-yl)-5-fluoro-phenyl]-[(7S)-3-(3,5-difluorophenyl)-2,7-dimethyl-5,7-dihydro-4H-pyrazolo[3,4-c]pyridine-6-yl]methanone] yielded an IC50 of 27 nM.

`C[C@@H]1c2nn(C)c(-c3cc(F)cc(F)c3)c2CCN1C(=O)c1cc(F)cc(N2CC3(C2)CS(=O)(=O)C3)c1Cl` [Example 21, [2-Chloro-3-(2,2-dioxo-2λ^6-thia-6-azaspiro[3.3]heptan-6-yl)-5-fluoro-phenyl]-[(7R)-3-(3,5-difluorophenyl)-2,7-dimethyl-5,7-dihydro-4H-pyrazolo[3,4-c]pyridine-6-yl]methanone]: the IC50 amounted to 1430 nM. In turn, `CC1c2nn(C)c(-c3cc(F)cc(F)c3)c2CCN1C(=O)c1cc(F)cc(N2CC(S(C)(=O)=O)C2)c1Cl` (stereo not drawn) [Example 22, [2-Chloro-5-fluoro-3-(3-methylsulfonylazetidin-1-yl)phenyl]-[3-(3,5-difluorophenyl)-2,7-dimethyl-5,7-dihydro-4H-pyrazolo[3,4-c]pyridin-6-yl]methanone] returned an IC50 of 76 nM. Under `C[C@H]1c2nn(C)c(-c3cc(F)cc(F)c3)c2CCN1C(=O)c1cc(F)cc(N2CC(S(C)(=O)=O)C2)c1Cl` [Example 23, [2-Chloro-5-fluoro-3-(3-methylsulfonylazetidin-1-yl)phenyl]-[(7S)-3-(3,5-difluorophenyl)-2,7-dimethyl-5,7-dihydro-4H-pyrazolo[3,4-c]pyridin-6-yl]methanone] stands 27 nM; under `CC1c2nn(C)c(-c3cc(F)cc(F)c3)c2CCN1C(=O)c1ccccc1Cn1ccnn1` (stereo not drawn) [Example 24, [3-(3,5-Difluorophenyl)-2,7-dimethyl-5,7-dihydro-4H-pyrazolo[3,4-c]pyridin-6-yl]-[2-(triazol-1-ylmethyl)phenyl]methanone], 1230 nM; under `Cc1c(C(=O)N2CCc3c(nn(C)c3-c3cc(F)cc(F)c3)C2C)cccc1N1CCNC1=O` (stereo not drawn) [Example 25, 1-[3-[3-(3,5-Difluorophenyl)-2,7-dimethyl-5,7-dihydro-4H-pyrazolo[3,4-c]pyridine-6-carbonyl]-2-methyl-phenyl]imidazolidin-2-one], 892 nM. Under `CC1c2nn(C)c(-c3cc(F)cc(F)c3)c2CCN1C(=O)c1cc(-c2cccc(C#N)c2)ccc1F` (stereo not drawn) [Example 26, 3-[3-[3-(3,5-Difluorophenyl)-2,7-dimethyl-5,7-dihydro-4H-pyrazolo[3,4-c]pyridine-6-carbonyl]-4-fluoro-phenyl]benzonitrile] stands 84 nM. Turning to `CC1c2nn(C)c(-c3cc(F)cc(F)c3)c2CCN1C(=O)c1cc(F)cc(OCC2(C(F)(F)F)CC2)c1Cl` (stereo not drawn) [Example 27, [2-Chloro-5-fluoro-3-[[1-(trifluoromethyl)cyclopropyl]methoxy]phenyl]-[3-(3,5-difluorophenyl)-2,7-dimethyl-5,7-dihydro-4H-pyrazolo[3,4-c]pyridin-6-yl]methanone], 88 nM corresponded to half-maximal inhibition (IC50). This IC50 and that of the compound before are within 1.5-fold of each other. Under `CC1c2nn(C)c(-c3cc(F)cc(F)c3)c2CCN1C(=O)c1cc(F)cc(C2=NOC(C)(C)C2)c1Cl` (stereo not drawn) [Example 28, [2-Chloro-3-(5,5-dimethyl-4H-isoxazol-3-yl)-5-fluoro-phenyl]-[3-(3,5-difluorophenyl)-2,7-dimethyl-5,7-dihydro-4H-pyrazolo[3,4-c]pyridin-6-yl]methanone] stands 385 nM; under `C[C@H]1c2nn(C)c(-c3cc(F)cc(F)c3)c2CCN1C(=O)c1cc(F)cc(-c2ccc(=O)[nH]c2)c1Cl` [Example 29, 5-[2-Chloro-3-[(7S)-3-(3,5-difluorophenyl)-2,7-dimethyl-5,7-dihydro-4H-pyrazolo[3,4-c]pyridine-6-carbonyl]-5-fluoro-phenyl]-1H-pyridin-2-one], 1 nM; under `C[C@@H]1c2nn(C)c(-c3cc(F)cc(F)c3)c2CCN1C(=O)c1cc(F)cc(-c2ccc(=O)[nH]c2)c1Cl` [Example 30, 5-[2-Chloro-3-[(7R)-3-(3,5-difluorophenyl)-2,7-dimethyl-5,7-dihydro-4H-pyrazolo[3,4-c]pyridine-6-carbonyl]-5-fluoro-phenyl]-1H-pyridin-2-one], 388 nM. The value for `C[C@H]1c2nn(C)c(-c3cc(F)cc(F)c3)c2CCN1C(=O)c1cc(F)cc(-c2cc[nH]c(=O)c2)c1Cl` [Example 31, 4-[2-Chloro-3-[(7S)-3-(3,5-difluorophenyl)-2,7-dimethyl-5,7-dihydro-4H-pyrazolo[3,4-c]pyridine-6-carbonyl]-5-fluoro-phenyl]-1H-pyridin-2-one] was 3 nM; that for `C[C@H]1c2nn(C)c(-c3cc(F)cc(F)c3)c2CCN1C(=O)c1ncn(-c2cccnc2O)n1` [Example 32, [(7S)-3-(3,5-Difluorophenyl)-2,7-dimethyl-5,7-dihydro-4H-pyrazolo[3,4-c]pyridin-6-yl]-[1-(2-hydroxy-3-pyridyl)-1,2,4-triazol-3-yl]methanone] was 232 nM. For `C[C@H]1c2nn(C)c(-c3cc(F)cc(F)c3)c2CCN1C(=O)c1ncn(-c2ccc(O)nc2)n1` [Example 33, [(7S)-3-(3,5-Difluorophenyl)-2,7-dimethyl-5,7-dihydro-4H-pyrazolo[3,4-c]pyridin-6-yl]-[1-(6-hydroxy-3-pyridyl)-1,2,4-triazol-3-yl]methanone], it took 163 nM to reach half-maximal inhibition (IC50).

As for `C[C@H]1c2nn(C)c(-c3cc(F)cc(F)c3)c2CCN1C(=O)c1ncn(-c2cc(F)cnc2O)n1` [Example 34, [(7S)-3-(3,5-Difluorophenyl)-2,7-dimethyl-5,7-dihydro-4H-pyrazolo[3,4-c]pyridin-6-yl]-[1-(5-fluoro-2-hydroxy-3-pyridyl)-1,2,4-triazol-3-yl]methanone], 149 nM corresponded to half-maximal inhibition (IC50).
